Data: patent US8835446B2, “Quinazoline derivatives and pharmaceutical compositions thereof” (Nippon Shinyaku Co., Ltd., priority 2005, dated 2014)

Key:
Guinea Pigs = experiment: Test for skin sensitization in guinea pigs (adjuvant and patch test method)
Procedure: The dorsal area of male Hartley guinea pigs (n=5) at the age of 7 weeks was shaved with an electric shaver, and on the following day, primary sensitization was initiated. In the primary sensitization, emulsified complete Freund's adjuvant was intradermally administered at a dose of 0.1 ml only at the initial time, and an adhesive plaster for a patch test spread with 0.1 g of an ointment containing a test compound at 1%, was applied in an occluded state to the site where the adjuvant was intradermally administered. As a base of the ointment, petrolatum containing sorbitan sesquioleate (a surfactant) at 1% was used. At 24 hours after the adhesive plaster for a patch test was applied, the adhesive plaster was removed, and the application site was cleaned by wiping. The procedure of this primary sensitization was performed once daily and continued for a total of 3 days. On 7 days after the initial application of the primary sensitization, secondary sensitization was performed. The site subjected to the primary sensitization was shaved, and an ointment containing sodium lauryl sulfate at 10% was applied thereto in an open state. After 24 hours, the application site was cleaned by wiping, and a lint cloth spread with 0.2 g of the ointment containing a test compound at 1% was applied, thereto in an occluded state. At 48 hours after the lint cloth was applied, the cloth was removed, and the application site was cleaned by wiping. Challenge was performed on 13 days after initiation of the secondary sensitization. The dorsal area and flank area were shaved, and 0.01 g of the ointment containing a test compound at 1% was applied to the challenge site and left for about 24 hours. At about 24 hours and 48 hours after the challenge, observation of the skin surface was performed, and the presence or absence of sensitizing was determined. The determination was carried out by scoring according to the evaluation criteria (see Table 1) of the Draize method (1959).
In this connection, as a positive control, 1-chloro-2,4-dinitrobenzene (DNCB) (sensitization: 1%, challenge: 0.1%) was used. As the test compound, the compounds of Example 58 and Example 248 were used. As a comparative control, 4-[((1S,2R)-2-{[amino(imino)methyl]amino}cyclohexyl)amino]-N-isobutyl-6-methylquinazoline-2-carboxamide dihydrochloride described in Example 383 in Patent document 1 (sensitization: 0.1%, induction: 1%) was used.

Rabbits = details: female, Kbs: JW, rabbit, in vivo, 24 h
From the text: Then, erythema and edema formation at the application site was observed. […] The mean value of the sum of erythema and edema scores was used as a simple primary skin irritation index. […]

Mice [1] = experiment: Acute toxicity test in mice; format: in vivo, mouse; details: intravenous, observed for 2 hours
From the text: Male ICR mice at the age of 4 to 6 weeks were used.

Mice [2] = experiment: Effect on scratching behavior induced by serotonin application in mice; format: in vivo, mouse; details: counted for 15 minutes
Procedure: To the cervical and dorsal area of male ICR mice (n=3 to 6) at the age of 4 to 6 weeks, 100 μl of a solution obtained by dissolving serotonin hydrochloride in ethanol at 0.1% (hereinafter referred to as serotonin) was applied, and the number of scratching behavior at the application site with the hind legs occurring immediately after the application was counted for 15 minutes after administration with a counter. Administration of a test compound was carried out by skin application, intravenous administration or oral administration. In the case of skin application, the test compound that was dissolved in ethanol was applied in an amount of 100 μl concurrently with serotonin. In the case of intravenous administration, the test compound that was dissolved in physiological saline was administered at a dose of 10 ml/kg at 5 minutes prior to the serotonin application. In the case of oral administration, the test compound that was dissolved in distilled water was administered at a dose of 10 ml/kg at 20 minutes prior to the serotonin application. The control group of each administration route was given the respective solvent, and the values of scratching behavior were compared between the control group and the test compound group.
The results obtained by skin application of the test compound are shown in Table 3; the results obtained by intravenous administration of the test compound are shown in Table 4; and the results obtained by oral administration of the test compound are shown in Table 5.

[3] = positive control, sensitization: 1%, challenge: 0.1%, n=5
[4] = skin application, concentration 0.1% in ethanol, concurrently with serotonin

| Compound | Simple primary skin irritation index (Rabbits) | Change in behavior (Mice [1]; 10 mg/kg) | Average number of scratching behavior (Mice [2]; [4]) | further results |
| --- | --- | --- | --- | --- |
| O=[N+]([O-])c1ccc(Cl)c([N+](=O)[O-])c1 [DNCB, 1-chloro-2,4-dinitrobenzene] |  |  |  | edema (Draize score, cases) (Guinea Pigs; [3]): score 1 in 3/5 cases, and score 0 in 2/5 cases; erythema (Draize score, cases) (Guinea Pigs; [3]): score 3 in 3/5 cases, score 2 in 1/5 cases, and score 1 in 1/5 cases |
| CON=C(N)N[C@@H]1CCCC[C@@H]1Nc1nc(C(=O)NCC(C)C)nc2ccc(C)cc12.Cl.Cl [Example 211, 4-[((1S,2R)-2-{[amino(methoxyimino)methyl]amino}cyclohexyl)amino]-N-isobutyl-6-methylquinazolin-2-carboxamide dihydrochloride] | 1.5 | No obvious change | 73.0 |  |
| Cc1ccc2nc(C(=O)NCC(C)C)nc(N[C@H]3CCCC[C@H]3NC(=N)C(C)(C)O)c2c1.Cl.Cl [Example 60, 4-({(1S,2R)-2-[(2-hydroxy-2-methylpropanimidoyl)amino]cyclohexyl}amino)-N-isobutyl-6-methylquinazolin-2-carboxamide dihydrochloride] | 1.0 |  |  | Change in behavior (Mice [1]; 5 mg/kg): No obvious change; Average number of scratching behavior (Mice [2]; intravenous administration, dose 3 mg/kg, 5 minutes prior to serotonin): 64.0 |
| COCCCNC(=O)c1nc(N[C@H]2CCCC[C@H]2NC(N)=NO)c2cc(C)ccc2n1.Cl.Cl [Example 240, 4-[((1S,2R)-2-{[amino(hydroxyimino)methyl]amino}cyclohexyl)amino]-N-(3-methoxypropyl)-6-methylquinazolin-2-carboxamide dihydrochloride] | 1.0 | No obvious change | 65.3 | Average number of scratching behavior (Mice [2]; oral administration, dose 30 mg/kg, 20 minutes prior to serotonin): 95.2 |
| Cc1ccc2nc(C(=O)NC(C)C)nc(N[C@H]3CCCC[C@H]3NC(=N)CCO)c2c1.Cl.Cl [Example 58, 4-({(1S,2R)-2-[(3-hydroxypropanimidoyl)amino]cyclohexyl}amino)-N-isopropyl-6-methylquinazolin-2-carboxamide dihydrochloride] | 0.4 | No obvious change | 55.5 |  |
| Cc1ccc2nc(C(=O)NCC(C)C)nc(N[C@H]3CCCC[C@H]3NC(=N)N)c2c1.Cl.Cl [Comparative control A, 4-[((1S,2R)-2-{[amino(imino)methyl]amino}cyclohexyl)amino]-N-isobutyl-6-methylquinazoline-2-carboxamide dihydrochloride] | 1.8 |  |  | edema (Draize score, cases) (Guinea Pigs; guinea pig, in vivo): edema was not observed in all the cases; erythema (Draize score, cases) (Guinea Pigs; male, Hartley, guinea pig, in vivo): well-defined erythema (score 2) was observed in 2/5 cases |
